# Laboratory results published in ChEMBL document CHEMBL3039007, “Structure-based identification of OATP1B1/3 inhibitors” (Mol Pharmacol, 2013).
# What was measured:
# [1] = biological target: T1, Solute carrier organic anion transporter family member 1B1 (Homo sapiens, UniProt Q9Y6L6); conditions: chinese hamster, cho, 10 µM
# T1 sequence (Q9Y6L6 whole entry): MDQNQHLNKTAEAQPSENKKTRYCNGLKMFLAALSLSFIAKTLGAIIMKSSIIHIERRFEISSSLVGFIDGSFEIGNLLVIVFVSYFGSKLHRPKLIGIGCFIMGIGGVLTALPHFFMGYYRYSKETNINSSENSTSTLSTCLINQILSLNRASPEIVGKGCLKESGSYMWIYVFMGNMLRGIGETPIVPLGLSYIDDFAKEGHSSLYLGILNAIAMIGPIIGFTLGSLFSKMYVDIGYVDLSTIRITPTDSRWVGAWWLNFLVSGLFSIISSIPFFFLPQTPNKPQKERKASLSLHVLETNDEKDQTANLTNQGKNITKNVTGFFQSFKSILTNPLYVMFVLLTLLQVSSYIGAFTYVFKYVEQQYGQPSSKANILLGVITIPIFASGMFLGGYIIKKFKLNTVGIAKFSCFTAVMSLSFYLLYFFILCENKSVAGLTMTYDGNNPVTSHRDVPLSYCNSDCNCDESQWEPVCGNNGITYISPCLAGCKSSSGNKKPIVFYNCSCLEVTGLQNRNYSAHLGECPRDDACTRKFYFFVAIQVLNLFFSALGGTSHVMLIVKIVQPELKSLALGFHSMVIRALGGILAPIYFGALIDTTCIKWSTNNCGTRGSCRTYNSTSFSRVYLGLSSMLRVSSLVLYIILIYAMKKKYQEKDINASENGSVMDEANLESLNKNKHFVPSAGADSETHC
# [2] = biological target: T2, Solute carrier organic anion transporter family member 1B3 (Homo sapiens, UniProt Q9NPD5); conditions: chinese hamster, cho, 10 µM
# T2 sequence (Q9NPD5 whole entry): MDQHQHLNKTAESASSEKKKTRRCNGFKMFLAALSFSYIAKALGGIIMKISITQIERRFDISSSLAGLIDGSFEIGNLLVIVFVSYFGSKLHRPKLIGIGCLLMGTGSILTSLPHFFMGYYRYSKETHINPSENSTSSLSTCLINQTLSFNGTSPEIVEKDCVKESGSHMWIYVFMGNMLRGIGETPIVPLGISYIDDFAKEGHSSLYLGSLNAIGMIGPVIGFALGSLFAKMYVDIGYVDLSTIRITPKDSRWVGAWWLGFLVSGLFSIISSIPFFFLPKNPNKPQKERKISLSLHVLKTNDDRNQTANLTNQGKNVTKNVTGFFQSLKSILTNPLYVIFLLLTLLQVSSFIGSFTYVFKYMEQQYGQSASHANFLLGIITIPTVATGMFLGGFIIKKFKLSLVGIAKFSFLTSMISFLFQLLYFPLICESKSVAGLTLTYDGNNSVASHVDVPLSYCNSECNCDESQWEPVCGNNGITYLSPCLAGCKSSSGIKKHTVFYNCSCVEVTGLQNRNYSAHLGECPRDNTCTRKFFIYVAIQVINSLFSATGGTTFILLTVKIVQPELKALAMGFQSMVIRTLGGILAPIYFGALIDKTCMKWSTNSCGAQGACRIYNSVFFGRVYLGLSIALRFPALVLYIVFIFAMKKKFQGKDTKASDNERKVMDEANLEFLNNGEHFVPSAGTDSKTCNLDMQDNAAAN
SMILES,residual activity [1] [%],residual activity [2] [%]
O=C(Nc1ccccc1)Nc1ccccc1,86.66,104.3
O=C(O)c1cc2ccccc2[nH]1 [INDOLE-2-CARBOXYLIC ACID],121.4,117.8
Cn1cnc([N+](=O)[O-])c1Sc1ncnc2nc[nH]c12 [AZATHIOPRINE],128.4,107.3
COc1c(O)cc2c(-c3ccccc3)cc(=O)oc2c1OC [KUHLMANNIN],128.2,118.4
CC[C@H]1OC(=O)[C@H](C)[C@@H](O[C@H]2C[C@@](C)(OC)[C@@H](O)[C@H](C)O2)[C@H](C)[C@@H](O[C@@H]2O[C@H](C)C[C@H](N(C)C)[C@H]2O)[C@](C)(O)C[C@@H](C)/C(=N\OCOCCOC)[C@H](C)[C@@H](O)[C@]1(C)O [ROXITHROMYCIN],91.33,77.16
Oc1ncnc2[nH]ncc12 [ALLOPURINOL],68.8,84.36
CCOC(=O)C(Cc1ccc(O)cc1)NC(C)=O (stereo not given) [ACETYL TYROSINE ETHYL ESTER],118.5,103.5
COc1ccc2c(c1)OC[C@@H](Cc1ccc(OC)c(OC)c1)[C@H]2O [TETRAHYDROSAPPANONE A TRIMETHYL ETHER],93.05,134.3
CCCCC(=O)N(Cc1ccc(-c2ccccc2-c2nnn[nH]2)cc1)[C@H](C(=O)O)C(C)C,67.47,56.31
CNc1ccccc1C(=O)O,90.95,100.4
CC(=O)c1ccc[nH]1 [2-ACETYLPYRROLE],111.7,98.29
CCCCCCNC(=O)n1cc(F)c(=O)[nH]c1=O [CARMOFUR],107,98.17
Cc1cc(C2CCCCC2)n(O)c(=O)c1.NCCO [CICLOPIROX OLAMINE],129.1,106
COc1ccc2ccc(=O)oc2c1 [HERNIARIN],148.3,104.5
CCCCCCCCCCCCCCCC[n+]1ccccc1.O.[Cl-],77.95,166.6
Cc1ccc2cc3c(ccc4ccccc43)c3c2c1CC3 [3-METHYLCHOLANTHRENE],86.73,78.58
CCC1(C)CC(=O)NC1=O (stereo not given) [ETHOSUXIMIDE],137.5,102.9
CNc1ccc(C(=O)CC(O)CCC(C)C2OC(=O)CC(O)CC(=O)CC(O)CC(O)CC(O)CC(O)CC3(O)CC(O)C(C(=O)OC)C(CC(O[C@@H]4O[C@H](C)[C@@H](O)[C@H](N)[C@@H]4O)/C=C/C=C/C=C/C=C/C=C/C=C/C=C/C2C)O3)cc1.COC(=O)C1C(O)CC2(O)CC(O)CC(O)CC(O)CC(O)CC(=O)CC(O)CC(=O)OC(C(C)CCC(O)CC(=O)c3ccc(N)cc3)C(C)/C=C/C=C/C=C/C=C/C=C/C=C/C=C/C(O[C@@H]3O[C@H](C)[C@@H](O)[C@H](N)[C@@H]3O)CC1O2 (stereo not given in full) [MEPARTRICIN],95.55,86.4
C=C1C([C@]2(C)C(CC(=O)OC)[C@@](C)(COC(C)=O)OC(=O)C[C@H]2OC(C)=O)[C@@H](OC=O)[C@@H](OC(=O)C(O)C(C)CC)[C@@]2(C)[C@H](c3ccoc3)CC(=O)C12O (stereo not given in full),28.24,54.44
CN/C(=N/CCSCc1nc[nH]c1C)NC#N [CIMETIDINE],120.2,96.42
Cc1onc(-c2ccccc2)c1-c1ccc(S(N)(=O)=O)cc1 [VALDECOXIB],120.4,94.41
Cc1cc2cc3c(C)cc(=O)oc3c(C)c2o1 [TRIOXSALEN],103.1,86.89
COc1c(-c2ccccc2)oc2c(ccc3occc32)c1=O [KARANJIN],50.39,124.7

SMILES,residual activity [1] [%],residual activity [2] [%]
COc1cc2c(cc1OC)[C@@H]1Cc3ccc(OC)c(OC)c3CN1CC2 [TETRAHYDROPALMATINE],186.7,106.9
CC[C@H](C)[C@H](N)C(=O)N1CCC[C@H]1C(=O)N[C@H](C(=O)O)[C@@H](C)CC [DIPROTIN A],108.3,116.8
NNC(=O)c1ccncc1 [ISONIAZID],88.4,98.94
CO/N=C(\C(=O)N[C@@H]1C(=O)N2C(C(=O)[O-])=C(COC(N)=O)CS[C@H]12)c1ccco1.[Na+] [CEFUROXIME SODIUM],64.47,83.34
C[C@@H]1CC[C@@]23CCC4(C)[C@@](C=CC5[C@@]6(C)CCC(=O)C(C)(C)C6CC[C@]54C)(OC2=O)C3[C@H]1C (stereo not given in full) [3-OXOURSAN (28-13)OLIDE],105.6,96.4
CC(C)CCC[C@@H](C)[C@H]1CC[C@H]2[C@@H]3CC[C@H]4CCCC[C@]4(C)[C@H]3CC[C@]12C,88.28,103.3
Cc1cccc(Nc2ccncc2S(=O)(=O)NC(=O)NC(C)C)c1 [TORSEMIDE],73.9,73.29
COc1cc(-c2coc3cc(O[C@@H]4O[C@H](CO)[C@@H](O)[C@H](O)[C@H]4O)c(OC)c(O)c3c2=O)cc(O)c1OC [IRIDIN],114.5,90.79
CC(C)OC(=O)C(C)(C)Oc1ccc(C(=O)c2ccc(Cl)cc2)cc1 [FENOFIBRATE],82.56,90.21
C[C@@H]1C[C@H]2CC(=O)[C@H]3CCCN4CCCC2[C@]34C1.[O-][Cl+3]([O-])([O-])O (stereo not given in full),104.6,106.7
"CC(C)c1ccc2c(c1)CCC1[C@](C)(CN)CCC[C@]21C.O=S(=O)(O)O (stereo not given in full) [18-AMINOABIETA-8,11,13-TRIENE SULFATE]",102.4,99.03
CC(=O)O[C@H]1CC[C@@]2(C)C(=CC[C@H]3[C@@H]4CC[C@H]([C@H](C)CCCC(C)C)[C@@]4(C)CC[C@@H]32)C1,89.8,102.8
COC(=O)/C(=C1/OC(=O)C(c2ccccc2)=C1O)c1ccccc1 [VULPINIC ACID],57.14,83.34
Nc1ccc(S(=O)(=O)c2ccc(N)cc2)cc1 [DAPSONE],78.21,84.17
Cl.Oc1ccc2c3c1O[C@H]1[C@@H](O)CC[C@@]4(O)[C@@H](C2)N(CC2CCC2)CC[C@]314 [NALBUPHINE HYDROCHLORIDE],86.64,96.59
N#Cc1c(Cl)c(Cl)c(Cl)c(C#N)c1Cl [CHLOROTHALONIL],92.97,81.58
C[C@H](CCC(=O)O)[C@H]1CC[C@H]2[C@@H]3[C@H](O)C[C@@H]4C[C@H](O)CC[C@]4(C)[C@H]3CC[C@]12C [CHENODIOL],37.88,71.62
C/C=C(/C(=C/C)c1ccc(O)cc1)c1ccc(O)cc1 [DIENESTROL],48.7,61.94
CS(C)(=O)=O [DIMETHYL SULFONE],115.1,102.7
CO[C@H]1[C@H](O)[C@H](O[C@H]2CC[C@@]3(C)[C@H](CC[C@@H]4[C@@H]3CC[C@]3(C)[C@@H](C5=CC(=O)OC5)CC[C@]43O)C2)O[C@@H](C)[C@@H]1O [NERIIFOLIN],95.6,148.8
CCCCCNC(=N)N/N=C/c1c[nH]c2ccc(OC)cc12.O=C(O)/C=C\C(=O)O [TEGASEROD MALEATE],73.16,112.9
Cc1cc(-c2ccccc2)nnc1NCCN1CCOCC1.Cl,73.96,96.66
